By Cmax is commonly meant the peak of the concentration-time curve.

Structures are written as SMILES.

This is an account of results in patent US11026896B2, “Transdermal penetrant formulations containing cannabidiol” (AMPERSAND BIOPHARMACEUTICALS, INC., priority 2019, dated 2021).

The nature of this series: Plasma pharmacokinetic profile of CBD after a single topical dose to CD-1 mice (In-life Study 1901002-01, LC-MS/MS). The format is in vivo. The note with it: single topical dose 0.1 mL, mouse plasma. As for the experimental part:
The objective of this study was to determine the plasma pharmacokinetic (PK) profile of test article cannabidiol (CBD) following the administration of a single topical dose to CD-1 mice. The work was conducted at Alliance Pharma with a title of In-life Study 1901002-01. Although the in-life study was not intended to be conducted in compliance with Good Laboratory Practice regulations, the study was conducted in accordance with Alliance Pharma's IACUC (Institutional Animal Care and Use Committee) Protocol No. 2016-02_V4 and Alliance Pharma's standard operating procedures (SOPs). In addition, the pharmacokinetic analyses of mouse plasma samples were conducted in accordance with Alliance Pharma SOPs.
A total of 72 mouse (CD-1) plasma samples were transferred from Alliance Pharma's in-life facility located in Malvern, Pa. to the Bioanalytical department for pharmacokinetic analysis. The concentration of CBD in these 72 plasma samples was measured using high-performance liquid chromatography (HPLC) with tandem mass spectrometry (MS/MS) detection.
In-life Study Design: In-life Study 1901002-01 was performed at the in-life testing facility at Alliance Pharma. Four (4) groups of 21 CD-1 mice each (84 total) were administered a single topical dose of CBD. Mice in Group 1 were administered Formulation A at a strength of 2.5% CBD. Mice in Group 2 were administered Formulation B at the same strength of 2.5% CBD. Mice in Group 3 were administered Formulation C at a strength of 5% CBD, and mice in Group 4 were administered Formulation C at a strength of 2.5% CBD. The treatment scheme is summarized below.
Animals in each group received topical administration of either 2.5% o 5% CBD using a 1 ml syringe to draw up exactly 100 μl. Compound was applied in the shaved area only. Each group received a different formulation of the compound.
Sample Collection, Processing, and Shipment: Blood samples were collected at the in-life facility at the following time points: 0.25, 0.5, 1, 2, 4, and 8 hours post-dose from 72 mice in Groups 1 through 4 (18 from each treatment group). Target volume was less than or equal to 0.2 ml. The blood was collected via trunk puncture into tubes using K2 EDTA as an anticoagulant. The collected blood samples were kept on wet ice before being centrifuged. Blood samples were centrifuged as soon as possible after blood collection at approximately 10,000 rpm for about 10 minutes to separate the plasma. Approximately 0.2 mL of each plasma sample was transferred into labeled Eppendorf tubes. Each tube was stored in a freezer set to −20° C. or lower. No blood was collected from 12 (3 from each treatment group) of the 84 mice enrolled in the in-life study; thus, the total number of plasma samples that were transferred to the Alliance Pharma Bioanalytical department for bioanalysis was 72.
Assay Procedures: For analysis of CBD, a 25-μL aliquot of each study sample was mixed with 25 μL of acetonitrile/water (50:50, v/v). Samples were then extracted by protein precipitation using acetonitrile containing the internal standard, tolbutamide (25 ng/mL). A portion of the supernatant was diluted in deionized water and used for the analysis of CBD.
Data Acquisition and Processing: The LC-MS/MS data acquisition was performed on a Shimadzu Nexera X2 LC system coupled with an AB SCIEX Triple Quad 5500 mass spectrometer. Chromatograms were integrated using Analyst 1.6.2 software. A weighted (1/x^2, x=concentration) linear regression was used to generate the calibration curve for CBD. The concentration of CBD was calculated using the peak area ratio of analyte to internal standard based on the standard curve. Mean, standard deviation, precision, accuracy, and assay variability were calculated using Microsoft Excel software.
Pharmacokinetic Analysis: Software—The PK parameters were determined using a non-compartmental analysis tool, namely, Phoenix WnNonlin 6.3 software (Pharsight Corporation, St. Louis, Mo.). […]

Where [1] appears, read: Group 1, AEM.CBD.006 Formulation A 2.5% CBD, mean dose 78.69 mg/kg.
The mark [2] stands for this setting: Group 2, AEM.CBD.007 Formulation B 2.5% CBD, mean dose 76.61 mg/kg.
Where [3] appears, read: Group 3, KBM.CBD.010 Formulation C 5% CBD, mean dose 155.24 mg/kg.
The mark [4] stands for this setting: Group 4, KBM.CBD.011 Formulation C 2.5% CBD, mean dose 75.76 mg/kg.

Under setting [1], `C=C(C)[C@@H]1CCC(C)=C[C@H]1c1c(O)cc(CCCCC)cc1O` [Cannabidiol] returned an AUCinf of 1865 ng·h/mL, an AUClast of 1758 ng·h/mL, a Cmax of 427.149 ng/mL and a t1/2 of 1.78 h. The compound also displayed a tmax under setting [1] of 2.00 h. Under setting [2], this compound showed an AUCinf of 1647 ng·h/mL, an AUClast of 1563 ng·h/mL, a Cmax of 360.351 ng/mL and a t1/2 of 1.70 h. Under setting [2], this compound gave a tmax of 2.00 h. Besides, under setting [3], the AUCinf came to 3533 ng·h/mL, the AUClast was 3067 ng·h/mL, the Cmax came out at 602.168 ng/mL and the tmax is 4.00 h. Moreover, under setting [4], the AUCinf worked out at 1514 ng·h/mL, the AUClast amounted to 1410 ng·h/mL, the Cmax stood at 331.560 ng/mL and the t1/2 amounted to 1.92 h. The tmax under setting [4] came to 1.00 h.
